In patent US20240199647A1, “ANTI-VIRAL COMPOUNDS” (Aligos Therapeutics, Inc., priority 2022, published 2024):
Where two headings read alike, the source gives them in different places.

Experiments:
SARS-Cov-2 3CLpro = SARS-Cov-2 3CLpro (Severe acute respiratory syndrome coronavirus 2, UniProt P0DTD1); assay: biochemical; settings: Table A, read-out: SARS-Cov-2 (IC50)
[1] = system: SARS-CoV-2 B.1.1.7 lineage; assay: microbe, parasite or virus in culture; format: cell-based; settings: Severe acute respiratory syndrome coronavirus 2, Table C, SARS-CoV-2 B.1.1.7 in A549-dual_ACE2_TMPRSS2 cells, read-out: A549-dual_ACE2_TMPRSS2 (EC50)
in vitro = settings: human

## CC(C)C[C@@H](C(=O)N1CC2(C[C@H]1C#N)Cn1nc(Br)cc1NC2=O)N(C)C(=O)[C@H](C)NC(=O)C(F)(F)F (stereo partly drawn) [Example 41, (2S)—N-((2S)-1-((5'S)-2-bromo-5′-cyano-5-oxo-4,5-dihydro-7H-spiro[pyrazolo[1,5-a]pyrimidine-6,3′-pyrrolidin]-1′-yl)-4-methyl-1-oxopentan-2-yl)-N-methyl-2-(2,2,2-trifluoroacetamido)propanamide]
SARS-Cov-2 3CLpro; class symbols
  IC50: 0.2 to 2 µM
[1]; cells given as a bound
  EC50: > 1 µM
In vitro
  CC50: > 1 µM

## CC(C)C[C@@H](C(=O)N1C[C@@]2(C[C@H]1C#N)Oc1ccc(F)cc1NC2=O)N(C)C(=O)[C@H](C)NC(=O)C(F)(F)F [Compound 14a, (S)—N—((S)-1-((2R,5'S)-5′-cyano-6-fluoro-3-oxo-3,4-dihydrospiro[benzo[b][1,4]oxazine-2,3′-pyrrolidin]-1′-yl)-4-methyl-1-oxopentan-2-yl)-N-methyl-2-(2,2,2-trifluoroacetamido)propanamide]
[1]; class symbols
  EC50: 0.1 to 1 µM
In vitro
  CC50: > 1 µM

## CO[C@H](C)[C@H](NC(=O)C(F)(F)F)C(=O)N(C)[C@@H](CC1CC1)C(=O)N1C[C@@]2(C[C@H]1C#N)Oc1cccnc1NC2=O [Compound 239]
SARS-Cov-2 3CLpro; class symbols
  IC50: < 0.02 µM

## C[C@H](NC(=O)C(F)(F)F)C(=O)N(C)[C@@H](CC1CC1)C(=O)N1C[C@@]2(C[C@H]1C#N)Oc1c(cccc1OC(F)(F)F)NC2=O [Compound 235]
SARS-Cov-2 3CLpro; class symbols
  IC50: < 0.02 µM

## C[C@H](NC(=O)C(F)(F)F)C(=O)N[C@@H](CC(C)(C)C)C(=O)N1C[C@@]2(C[C@H]1C#N)Oc1cc(F)cc(F)c1NC2=O [Compound 68]
SARS-Cov-2 3CLpro; class symbols
  IC50: 0.02 to 0.2 µM
[1]; cells given as a bound
  EC50: > 1 µM
In vitro
  CC50: > 1 µM

## CC(C)C[C@@H](C(=O)N1CC2(C[C@H]1C#N)Cn1nccc1NC2=O)N(C)C(=O)[C@H](C)NC(=O)C(F)(F)F (stereo partly drawn) [Example 40, (2S)—N-((2S)-1-((5'S)-5′-cyano-5-oxo-4,5-dihydro-7H-spiro[pyrazolo[1,5-a]pyrimidine-6,3′-pyrrolidin]-1′-yl)-4-methyl-1-oxopentan-2-yl)-N-methyl-2-(2,2,2-trifluoroacetamido)propanamide]
SARS-Cov-2 3CLpro; class symbols
  IC50: 0.2 to 2 µM
[1]; cells given as a bound
  EC50: > 1 µM
In vitro
  CC50: > 1 µM

## CC(C)C[C@H](C(=O)N1C[C@@]2(C[C@H]1C#N)Oc1ccc(F)cc1NC2=O)N(C)C(=O)[C@H](C)NC(=O)C(F)(F)F [Compound 14b, (S)—N—((R)-1-((2R,5'S)-5′-cyano-6-fluoro-3-oxo-3,4-dihydrospiro[benzo[b][1,4]oxazine-2,3′-pyrrolidin]-1′-yl)-4-methyl-1-oxopentan-2-yl)-N-methyl-2-(2,2,2-trifluoroacetamido)propanamide]
[1]; cells given as a bound
  EC50: > 1 µM
In vitro
  CC50: > 1 µM

## CN(C(=O)[C@@H](NC(=O)C(F)(F)F)C1CCCC1)[C@@H](CC1CC1)C(=O)N1C[C@@]2(C[C@H]1C#N)Oc1cccnc1NC2=O [Compound 218]
SARS-Cov-2 3CLpro; class symbols
  IC50: < 0.02 µM
[1]; class symbols
  EC50: < 0.1 µM
In vitro
  CC50: > 1 µM

## CO[C@H](C)[C@H](NC(=O)C(F)(F)F)C(=O)N(C)[C@@H](CC1CC1)C(=O)N1C[C@@]2(C[C@H]1C#N)Oc1ncccc1NC2=O [Compound 240]
SARS-Cov-2 3CLpro; class symbols
  IC50: < 0.02 µM

## CN(C(=O)[C@H](CC1CC1)NC(=O)C(F)(F)C(F)(F)F)[C@@H](CC1CC1)C(=O)N1C[C@@]2(C[C@H]1C#N)Oc1ccccc1CNC2=O [Compound 162]
SARS-Cov-2 3CLpro; class symbols
  IC50: < 0.02 µM
[1]; class symbols
  EC50: < 0.1 µM
In vitro
  CC50: > 1 µM

## C[C@H](NC(=O)C(F)(F)F)C(=O)N[C@@H](CC1CC1)C(=O)N1C[C@@]2(C[C@H]1C#N)Oc1cccnc1NC2=O [Compound 180]
SARS-Cov-2 3CLpro; class symbols
  IC50: 0.2 to 2 µM
[1]; cells given as a bound
  EC50: > 1 µM
In vitro
  CC50: > 1 µM

## CN(C(=O)[C@@H](Cc1cccnc1)NC(=O)C(F)(F)F)[C@@H](CC1CC1)C(=O)N1C[C@@]2(C[C@H]1C#N)Oc1cccnc1NC2=O [Compound 151]
SARS-Cov-2 3CLpro; class symbols
  IC50: < 0.02 µM
[1]; class symbols
  EC50: 0.1 to 1 µM
In vitro
  CC50: > 1 µM

## CN(C(=O)[C@@H](NC(=O)C(F)(F)F)C12CC(C1)C2)[C@@H](CC1CC1)C(=O)N1C[C@@]2(C[C@H]1C#N)Oc1cccnc1NC2=O [Compound 217]
SARS-Cov-2 3CLpro; class symbols
  IC50: < 0.02 µM
[1]; class symbols
  EC50: 0.1 to 1 µM
In vitro
  CC50: > 1 µM

## CC(C)C[C@@H](C(=O)N1C[C@]2(C[C@H]1C#N)C(=O)NC(=O)N2C)N(C)C(=O)[C@H](C)NC(=O)C(F)(F)F [Compound 10, (S)—N—((S)-1-((5R,8S)-8-cyano-1-methyl-2,4-dioxo-1,3,7-triazaspiro[4.4]nonan-7-yl)-4-methyl-1-oxopentan-2-yl)-N-methyl-2-(2,2,2-trifluoroacetamido)propanamide]
SARS-Cov-2 3CLpro; class symbols
  IC50: 0.2 to 2 µM
[1]; class symbols
  EC50: 1 to 10 µM
In vitro
  CC50: > 1 µM

## CC([C@H](NC(=O)C(F)(F)F)C(=O)N(C)[C@@H](CC1CC1)C(=O)N1C[C@@]2(C[C@H]1C#N)Oc1cccnc1NC2=O)C(C)(C)C (stereo partly drawn) [Compound 234]
SARS-Cov-2 3CLpro; class symbols
  IC50: < 0.02 µM

## CN(C(=O)c1cnc(-c2ccccc2)[nH]1)[C@@H](CC1CC1)C(=O)N1C[C@@]2(C[C@H]1C#N)Oc1cccnc1NC2=O [Compound 211]
SARS-Cov-2 3CLpro; class symbols
  IC50: 0.02 to 0.2 µM
[1]; class symbols
  EC50: 0.1 to 1 µM
In vitro
  CC50: > 1 µM

## CN(C(=O)c1nnc(-c2ccccc2)[nH]1)[C@@H](CC1CC1)C(=O)N1C[C@@]2(C[C@H]1C#N)Oc1cccnc1NC2=O [Compound 210]
SARS-Cov-2 3CLpro; class symbols
  IC50: 0.2 to 2 µM
[1]; cells given as a bound
  EC50: > 1 µM
In vitro
  CC50: > 1 µM

## CN(C(=O)[C@H](CC1CC1)NC(=O)C(F)(F)F)[C@@H](CC1CC1)C(=O)N1C[C@@]2(C[C@@H]1C#N)C(=O)NCc1ccccc12 (single isomer, unassigned) [Compound 123]
SARS-Cov-2 3CLpro; cells given as a bound
  IC50: > 2 µM

## CC(C)C[C@@H](C(=O)N1CC2(C[C@H]1C#N)C(=O)Nc1ccnn12)N(C)C(=O)[C@H](C)NC(=O)C(F)(F)F (stereo partly drawn) [Example 7, (2S)—N-[(2S)-1-[(5'S)-5′-cyano-2-oxo-1H-spiro[pyrazolo[1,5-a]imidazole-3,3′-pyrrolidin]-1′-yl]-4-methyl-1-oxopentan-2-yl]-N-methyl-2-(2,2,2-trifluoroacetamido)propanamide]
SARS-Cov-2 3CLpro; class symbols
  IC50: 0.02 to 0.2 µM
[1]; class symbols
  EC50: 1 to 10 µM
In vitro
  CC50: > 1 µM

## CN(C(=O)[C@@H]1CC[C@@H](c2ccccc2)N1C)[C@@H](CC1CC1)C(=O)N1C[C@@]2(C[C@H]1C#N)Oc1cc(F)cc(F)c1NC2=O [Compound 153]
SARS-Cov-2 3CLpro; class symbols
  IC50: 0.02 to 0.2 µM
[1]; class symbols
  EC50: 0.1 to 1 µM
In vitro
  CC50: > 1 µM

## CN(C(=O)[C@@H](Cc1ccncc1)NC(=O)C(F)(F)F)[C@@H](CC1CC1)C(=O)N1C[C@@]2(C[C@H]1C#N)Oc1cccnc1NC2=O [Compound 148]
SARS-Cov-2 3CLpro; class symbols
  IC50: < 0.02 µM
[1]; cells given as a bound
  EC50: > 1 µM
In vitro
  CC50: > 1 µM

## CN(C(=O)[C@H](CC1CC1)NC(=O)C(F)(F)F)[C@@H](CC1CC1)C(=O)N1C[C@@]2(C[C@H]1C#N)Sc1ccccc1NC2=O [Example 39, (S)—N—((S)-1-((2R,5'S)-5′-cyano-3-oxo-3,4-dihydrospiro[benzo[b][1,4]thiazine-2,3′-pyrrolidin]-1′-yl)-3-cyclopropyl-1-oxopropan-2-yl)-3-cyclopropyl-N-methyl-2-(2,2,2-trifluoroacetamido)propanamide]
SARS-Cov-2 3CLpro; class symbols
  IC50: < 0.02 µM
[1]; class symbols
  EC50: < 0.1 µM
In vitro
  CC50: > 1 µM

## C[C@H](NC(=O)C12CC(C1)C2)C(=O)N(C)[C@@H](CC1CC1)C(=O)N1C[C@@]2(C[C@H]1C#N)Oc1cccnc1NC2=O [Compound 216]
SARS-Cov-2 3CLpro; class symbols
  IC50: < 0.02 µM
[1]; class symbols
  EC50: 0.1 to 1 µM
In vitro
  CC50: > 1 µM

## CC(C)C[C@@H](C(=O)N1C[C@]2(CC(C(C)C)NC2=O)C[C@H]1C#N)N(C)C(=O)[C@H](C)NC(=O)C(F)(F)F (stereo partly drawn) [Example 38]
SARS-Cov-2 3CLpro; class symbols
  IC50: < 0.02 µM
[1]; class symbols
  EC50: 0.1 to 1 µM
In vitro
  CC50: > 1 µM

## CC(C)C[C@@H](C(=O)N1C[C@@]2(CCCNC2=O)C[C@H]1C#N)N(C)C(=O)[C@H](C)NC(=O)C(F)(F)F [Compound 9, (S)—N—((S)-1-((3S,5R)-3-cyano-6-oxo-2,7-diazaspiro[4.5]decan-2-yl)-4-methyl-1-oxopentan-2-yl)-N-methyl-2-(2,2,2-trifluoroacetamido)propanamide]
SARS-Cov-2 3CLpro; class symbols
  IC50: 20 to 100 µM
[1]; class symbols
  EC50: 1 to 10 µM
In vitro
  CC50: > 1 µM

## [2H]C([2H])([2H])N(C(=O)[C@H](C)NC(=O)C(F)(F)F)[C@@H](CC(C)C)C(=O)N1C[C@@]2(C[C@H]1C#N)Oc1cc(F)cc(F)c1NC2=O [Compound 109]
SARS-Cov-2 3CLpro; class symbols
  IC50: < 0.02 µM
[1]; class symbols
  EC50: 0.1 to 1 µM
In vitro
  CC50: > 1 µM

## C[C@H](NC(=O)C1(C)CCC1)C(=O)N(C)[C@@H](CC1CC1)C(=O)N1C[C@@]2(C[C@H]1C#N)Oc1cccnc1NC2=O [Compound 212]
SARS-Cov-2 3CLpro; class symbols
  IC50: < 0.02 µM
[1]; class symbols
  EC50: 0.1 to 1 µM
In vitro
  CC50: > 1 µM

## CN(C(=O)[C@H](CCCN)NC(=O)C(F)(F)F)[C@@H](CC1CC1)C(=O)N1C[C@@]2(C[C@H]1C#N)Oc1cccnc1NC2=O [Compound 236]
SARS-Cov-2 3CLpro; class symbols
  IC50: < 0.02 µM

## COc1cccc(C[C@@H](NC(=O)C(F)(F)F)C(=O)N(C)[C@@H](CC2CC2)C(=O)N2C[C@@]3(C[C@H]2C#N)Oc2cccnc2NC3=O)c1 [Compound 152]
SARS-Cov-2 3CLpro; class symbols
  IC50: < 0.02 µM
[1]; class symbols
  EC50: < 0.1 µM
In vitro
  CC50: > 1 µM

## CN(C(=O)[C@H](CC1CC1)NC(=O)c1ccc(F)cc1)[C@@H](CC1CC1)C(=O)N1C[C@@]2(C[C@H]1C#N)Oc1ccccc1CNC2=O [Compound 161]
SARS-Cov-2 3CLpro; class symbols
  IC50: < 0.02 µM
[1]; class symbols
  EC50: < 0.1 µM
In vitro
  CC50: > 1 µM

## CN(C(=O)[C@@H](CC1CCCCC1)NC(=O)C(F)(F)F)[C@@H](CC1CC1)C(=O)N1C[C@@]2(C[C@H]1C#N)Oc1cccnc1NC2=O [Compound 145]
SARS-Cov-2 3CLpro; class symbols
  IC50: < 0.02 µM
[1]; class symbols
  EC50: < 0.1 µM
In vitro
  CC50: > 1 µM

## CN(C(=O)[C@H](CC1CC1)NC(=O)C(F)(F)Cl)[C@@H](CC1CC1)C(=O)N1C[C@@]2(C[C@H]1C#N)Oc1ncccc1NC2=O [Compound 238]
SARS-Cov-2 3CLpro; class symbols
  IC50: < 0.02 µM

## CN(C(=O)c1cc2ccccc2c(=O)[nH]1)[C@@H](CC1CC1)C(=O)N1C[C@@]2(C[C@H]1C#N)Oc1cccnc1NC2=O [Compound 237]
SARS-Cov-2 3CLpro; class symbols
  IC50: 0.2 to 2 µM
